Test results taken from US20210290721A1, “ORAL FORMULATIONS FOR PROMOTING CELLULAR PURIFICATION” (NSE Products, Inc., priority 2011, published 2021).

Experiments:
iNOS/Nos2 = assay: RT-qPCR expression of iNOS/Nos2 in lung of young mice; type: in vivo, C57BL/6J mice; conditions: diet supplemented from 8 to 22 weeks of age, treated vs YC
Excerpt: C57BL/6J mice were obtained at 6 weeks of age and individually housed in shoebox cages and provided with 24 grams (˜84 kcal) of AIN-93^M diet per week (7 grams on Monday and Wednesday and 10 grams on Friday). Starting at 8 weeks of age and continuing until 22 weeks of age, mice were either 1) maintained on the AIN93^M diet (Young Controls, YC); 2) fed a Calorie Restricted (CR) diet providing 63 kcal/week of a modified AIN93^M formulation; or 3) were assigned to an AIN93^M diet supplemented with one of several plant extracts, vitamins or phytochemicals; the amount of each ingredient per kilogram diet varied depending on the experimental ingredient studied. At 22 weeks of age, tissues were collected from mice, flash-frozen in liquid nitrogen and stored at −80° C. for later analysis.
To determine if CR or an ingredient positively influenced the Nrf2 pathway to regulate expression of xenobiotic metabolism genes and oxidative stress genes and/or positively influenced genes responsible for regulation of inflammation, we performed quantitative real-time PCR (RT-qPCR) analysis on RNA isolated from entire livers and lungs from all groups of mice. Briefly, the magnitude of change was determined for each gene, comparing the young control (YC) group vs. the caloric or energy restriction (CR) group and YC vs. Treated mice. […]

GCLC = assay: RT-qPCR expression of GCLC in gastrocnemius muscle of old mice; type: in vivo, B6C3F1 mice; conditions: for effect on age-related decreases in the expression of GCLC: YC vs OC and OC vs old treated mice; for GCLC expression: diet supplemented from 14 to 30 months of age, old treated vs old controls (OC)
Excerpt: (§1) B6C3F1 mice were obtained and housed as in Example 1. For the young control (YC) group, starting at 8 weeks of age and continuing until 22 weeks of age, mice were maintained on the AIN93^M diet; For the old animal groups, starting at 14 months of age and continuing until 30 months of age, mice were either 1) maintained on the AIN93^M diet (old controls, OC); 2) fed a calorie or energy restricted (CR) diet providing 63 kcal/week of a modified AIN93^M formulation; or 3) were assigned to an AIN93^M diet supplemented with one of several plant extracts, vitamins or phytochemicals; the amount of each ingredient per kilogram diet varied depending on the experimental ingredient studied. At the end of the feeding period, tissues were collected from the gastrocnemius muscles of the mice, flash-frozen in liquid nitrogen and stored at −80° C. for later analysis.
To determine if CR or an ingredient opposed age-related declines in the Nrf2 pathway to regulate expression of xenobiotic metabolism genes and oxidative stress genes, we performed quantitative real-time PCR (RT-qPCR) analysis on RNA isolated from gastrocnemius muscle from all groups of mice. The magnitude of change was determined for each gene (YC vs. OC and OC vs Old treated mice). Two-tailed t-tests (assuming equal variance) were used to determine if the change in expression for individual genes was statistically significant. The magnitude of the change in expression is reported as “fold change” values which are log 2-adjusted to fit normality assumptions for statistical analyses.
A panel of 5 genes representative of the Nrf2 pathway was selected for screening the ingredients: GCLM, GCLC, GSR, GSTA1, and NQO1. Ingredients screened in the muscle included: alpha lipoic acid, CoQ10, Pomegranate, Resveratrol and others.

GSR = assay: RT-qPCR expression of GSR in gastrocnemius muscle of old mice; type: in vivo, B6C3F1 mice
Excerpt: as §1, with “analysis. To determine if CR or an ingredient opposed age-related declines in the Nrf2 pathway to regulate expression of xenobiotic metabolism genes and oxidative stress genes, we performed quantitative real-time PCR (RT-qPCR) analysis on RNA isolated from gastrocnemius muscle from all groups of mice. The magnitude of change was determined for each gene (YC vs. OC and OC vs Old treated mice). Two-tailed t-tests (assuming equal variance) were used to determine if the change in expression for individual genes was statistically significant. […]” for “analysis.”

[1] = system: Nrf2/ARE/detoxification related genes; assay: RT-qPCR gene expression screening in liver of young mice fed ingredient-supplemented diet; type: in vivo, C57BL/6J mice; conditions: diet supplemented from 8 to 22 weeks of age, treated vs young control (YC)

SMILES	change in iNOS/Nos2 expression in the lung (iNOS/Nos2)	effect on age-related decreases in the expression of GCLC (GCLC)	GCLC expression (GCLC)	effect on age-related decreases in the expression of GSR (GSR; YC vs OC and OC vs old treated mice)	GSR expression (GSR; diet supplemented from 14 to 30 months of age, old treated vs OC)	gene expression changes in the liver (impact of ingredient) [1]
COC1=C(OC)C(=O)C(C/C=C(\C)CC/C=C(\C)CC/C=C(\C)CC/C=C(\C)CC/C=C(\C)CC/C=C(\C)CC/C=C(\C)CC/C=C(\C)CC/C=C(\C)CCC=C(C)C)=C(C)C1=O [CoQ10, coenzyme Q10]	Modest downregulation	opposed age related decreases	upregulated			
O=c1c(O)c(-c2ccc(O)c(O)c2)oc2cc(O)cc(O)c12 [quercetin, Quercetin]	Modest downregulation					
O=C(O)CCCCC1CCSS1 (stereo not drawn) [alpha lipoic acid]		opposed age-related decreases	upregulated	opposed age-related decreases	upregulated	greatest positive impact
